From US20250339409A1, “USES OF PAN BET INHIBITORS” (VYNE THERAPEUTICS INC., priority 2021, published 2025)
Several values for one entry are separate records, joined by “and”; a condition that tells them apart may be missing. Equal entries are not always repeated.

Columns and labels:
[1] = tested on: bleomycin induced pulmonary fibrosis; assay: Bleomycin mice: lung histopathology (H & E, Masson's Trichrome), Hübner-modified Ashcroft score; assay type: in vivo, C57BL/6 male mice; details: for mean score, Hübner-modified Ashcroft scale of 0-8: bleomycin
Description: Seven mice from each group are randomly submitted for histopathology analysis (Hematoxylin and eosin (H & E) and Masson's Trichrome (MT)). The lungs are trimmed as needed and processed overnight in a Citadel 1000 automated processor by Shandon Scientific. Post-processing, lungs are embedded in paraffin blocks and sectioned in the following fashion: several slides are generated with lung sections in the first 1 mm of tissue, middle portions of the tissue, and finally near the latter third of the tissue in order to glean histological alterations throughout the lung. Sections are cut at […] thickness with a rotary microtome. Several slides per lung (at each depth) are stained with a H & E stain (reagents from Fisher Scientific) and MT Stain (Sigma kit HT15).
Pathological alterations are evaluated by a pathologist in blind manner (both dosage and treatment programs are unknown to the pathologist). The subacute interstitial inflammation and Agonal Hemorrhage are evaluated mainly based on the H & E staining. Fibrotic modifications are assessed morphologically and semi-quantitatively graded according to the scale defined by Ashcroft and modified by Hübner. Three sections for each lung sample are stained with MT and scored on a scale of 0-8. The final score is expressed as a mean of individual scores observed across all microscopic fields. In order to quantify the distribution of pulmonary fibrosis, the Ashcroft scores are graded in 3 general classes of increasing values: ranging from 0-3 (mild), 4 (moderate) and ≥5 (severe).
Three sections for each lung sample were stained with H & E and Masson's Trichrome and scored on a Hübner-modified Ashcroft scale of 0-8. Three pictorial representations for each of groups 1-5 are shown in FIGS. 19A-E respectively (100×) and one representation for each of groups 1-5 is shown in FIGS. 19F-J (40×). Histology provides a picture or snapshot of the absence or presence of fibrosis. […] Other groups with higher concentrations of BETi also appeared to lessen bleomycin induced fibrosis but to a lesser degree.

[2] = tested on: MMP-9; assay: RHE vitiligo model: MMP-9 secretion by ELISA; assay type: cell-based, human; details: for reduction in secreted MMP-9: 1% treatment, vs stimulated/untreated control or vehicle; for MMP-9 (% stimulated ctl) Mean / MMP-9 (% stimulated ctl): TNF-α/IFN-γ stimulated RHE; for MMP-9 (% stimulated ctl) Mean / MMP-9 (% stimulated ctl) / Mean conc MMP-9 / Conc MMP-9: 48 h; for MMP-9 (% stimulated ctl) / Conc MMP-9: replicates N1-N3; for Mean conc MMP-9 / Conc MMP-9: culture medium of RHE, TNF-α 12 ng/ml/IFN-γ 12 ng/ml
Procedure: […] Three epidermis samples per condition are fixed in 4% formaldehyde solution and embedded in paraffin for further analysis (morphology analysis, melanin and melanocytes localisation/quantification). Three other epidermis samples per condition are put in a specific lysis buffer for total RNA extraction.
At the end of the treatments, culture media is collected (from 3 epidermis per condition), aliquoted and stored at −20° C. until use in ELISA assays. The quantity of MMP-9 secreted by the epidermis at the end of the treatments is analysed using the human MMP-9 Quantikine ELISA kit (Bio-Techne; DMP900). The secretion of E-cadherin in culture media is measured using to human E-cadherin Quantikine ELISA kit (Bio-Techne; DCADE0) dedicated for the measurement of natural human E-cadherin in culture supernates, serum, plasma, urine, and saliva.
The ELISAs are performed following the instructions of the supplier. The quantities of MMP-9 and E-cadherin are determined by comparisons with standard curves performed with recombinant human MMP-9 or E-cadherin provided in the kits.
Quantification of secretion of MMP-9 and E-cadherin by ELISA from collected culture medium was conducted in accordance with Method E. The results, shown in FIG. 5A and FIG. 5B are based on Tables 23 and 24 respectively and presented in percentage of release in comparison to the stimulated control. A statistical analysis (student t-test) was performed to compare the effects of the treatments with the formulations to the vehicle (with $: 0.05>p>0.01; $$: 0.01>p>0.001; and $$$: p<0.001). The same analysis was performed to compare the effects of the vehicle and of the unstimulated control to the stimulated control (with *: 0.05>p>0.01; **: 0.01>p>0.001; and ***: p<0.001). The analysis was performed from three replicates per condition (n=3). The mean of the three values and the standard deviation are presented on the histograms in FIG. 5A and FIG. 5B. As shown in Table 21 and FIG. 5A and consistent with the results of Part A, MMP-9 secretion was increased following the stimulation with the cytokines, which validates the assay.

## Cn1cc(-c2cccc(O)c2Oc2ccccc2)c2cc[nH]c2c1=O [BETi1]
[1]; Group 3 Bleo/BETi1 0.06 mg/mL
  Mean Histology Score (Hubner-modified Ashcroft): 3.00
[1]; Group 4 Bleo/BETi1 0.6 mg/mL
  Mean Histology Score (Hubner-modified Ashcroft): 4.64
[1]; Group 5 Bleo/BETi1 3 mg/mL
  Mean Histology Score (Hubner-modified Ashcroft): 5.52
[1]; 0.06 mg/mL
  mean score, Hübner-modified Ashcroft scale of 0-8: 3.00
[1]; 0.6 mg/mL
  mean score, Hübner-modified Ashcroft scale of 0-8: 4.64
[1]; 3 mg/mL
  mean score, Hübner-modified Ashcroft scale of 0-8: 5.52
[2]
  reduction in secreted MMP-9: ~95%
[2]; listed as BETi1 1%
  reduction in secreted MMP-9: > 95%
[2]; listed as BETi 1%
  reduction in secreted MMP-9: about 94.7%
[2]; BETi1 0.001%
  MMP-9 (% stimulated ctl) Mean: 137%
  MMP-9 (% stimulated ctl): 140% and 138% and 134%
  Mean conc MMP-9: 24.1 ng/mL
  Conc MMP-9: 24.5 ng/mL and 24.1 ng/mL and 23.5 ng/mL
[2]; BETi1 0.01%
  MMP-9 (% stimulated ctl) Mean: 113%
  MMP-9 (% stimulated ctl): 113% and 104% and 122%
  Mean conc MMP-9: 19.8 ng/mL
  Conc MMP-9: 19.9 ng/mL and 18.2 ng/mL and 21.4 ng/mL
[2]; BETi1 0.1%
  MMP-9 (% stimulated ctl) Mean: 10%
  MMP-9 (% stimulated ctl): 9% (2×) and 12%
  Mean conc MMP-9: 1.7 ng/mL
  Conc MMP-9: 1.5 ng/mL and 2.0 ng/mL and 1.6 ng/mL
[2]; BETi1 1%
  MMP-9 (% stimulated ctl) Mean: 5%
  MMP-9 (% stimulated ctl): 5% (2×) and 6%
  Mean conc MMP-9: 0.9 ng/mL
  Conc MMP-9: 0.9 ng/mL and 1.1 ng/mL and 0.8 ng/mL
